In one experiment the target is Human Cot (Homo sapiens (Human), UniProt P41279). The experiment in a line: High Throughput Cot Biochemical Assay. The conditions noted are these: Cot HTRF (TR-FRET) biochemical assay.
Another experiment concerns TNFα. The experiment in a line: Cot Monocyte TNFα Cell Based Assay.
Setting [1] is: Homo sapiens, Monocyte, read-out: EC50 TNF, LPS-stimulated human monocytes, TNFα.

From patent US11066414B2, “Cot modulators and methods of use thereof” (Gilead Sciences, Inc., priority 2015, dated 2021) come the findings set out here.

Usually IC50 stands for the midpoint of a concentration-inhibition curve. By EC50 is commonly meant the concentration at which the effect is half-maximal.

Where two headings read alike, the source gives them in different places.

Human Cot, sequence (P41279 30-397): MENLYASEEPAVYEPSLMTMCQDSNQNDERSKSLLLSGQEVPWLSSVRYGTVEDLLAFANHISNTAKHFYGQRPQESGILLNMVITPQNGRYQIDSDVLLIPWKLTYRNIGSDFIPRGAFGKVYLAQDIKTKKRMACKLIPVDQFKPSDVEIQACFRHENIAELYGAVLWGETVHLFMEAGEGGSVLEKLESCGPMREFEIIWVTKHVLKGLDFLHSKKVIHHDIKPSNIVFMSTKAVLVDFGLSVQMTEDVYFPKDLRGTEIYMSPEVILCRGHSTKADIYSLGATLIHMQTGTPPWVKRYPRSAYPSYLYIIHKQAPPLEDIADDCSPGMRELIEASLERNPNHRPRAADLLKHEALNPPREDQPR

Turning to `N#Cc1cnc2c(Cl)cc(N[C@@H](c3cccnc3)c3cn(CCN4CCOCC4)nn3)cc2c1Nc1ccc(F)c(Cl)c1` [Example 335, (S)-8-chloro-4-((3-chloro-4-fluorophenyl)amino)-6-(((1-(2-morpholinoethyl)-1H-1,2,3-triazol-4-yl)(pyridin-3-yl)methyl)amino)-quinoiine-3-carbonitrile], the concentration for half-maximal inhibition (IC50) on Human Cot (read-out: IC50 HTRF) was found to be 10 nM. Moreover, in the experiment on TNFα (read-out: EC50 TNF, LPS-stimulated human monocytes, TNFα), the EC50 worked out at 405 nM.
Turning to `COCCOCCn1cc([C@@H](Nc2cc(Cl)c3ncc(C#N)c(Nc4ccc(F)c(Cl)c4)c3c2)c2cccnc2)nn1` [Example 340, (S)-8-chloro-4-((3-chloro-4-fluorophenyl)amino)-6-(((1-(2-(2-methoxyethoxy)ethyl)-1H-1,2,3-triazol-4-yl)(pyridin-3-yl)methyl)-amino)quinoline-3-carbonitrile], at Human Cot (IC50 HTRF), the IC50 was determined as 8 nM. For the same molecule, in the experiment on TNFα (setting [1]), the EC50 was determined as 328 nM.
Turning to `N#Cc1cnc2c(Cl)cc(N[C@@H](c3cccnc3)c3cn(CCOCCO)nn3)cc2c1Nc1ccc(F)c(Cl)c1` [Example 341, (S)-8-chloro-4-((3-chloro-4-fluorophenyl)amino)-6-(((1-(2-(2-hydroxyethoxy)ethyl)-1H-1,2,3-triazol-4-yl)(pyridin-3-yl)methyl)-amino)quinoline-3-carbonitrile], half-maximal inhibition against Human Cot (IC50 HTRF) (IC50) required 6 nM. Besides, in the experiment on TNFα (setting [1]), the EC50 amounted to 843 nM.
`Cn1cncc1[C@H](Nc1cc(Cl)c2ncc(C#N)c(Nc3ccc(F)c(Cl)c3)c2c1)c1cn(C2CCN(C(C)(C)C)CC2)nn1` [Example 342, (S)-6-(((1-(1-(tert-butyl)piperidin-4-yl)-1H-1,2,3-triazol-4-yl)(1-methyl-1H-imidazol-5-yl)methyl)amino)-8-chloro-4-((3-chloro-4-fluorophenyl)-amino)quinoline-3-carbonitrile]: at Human Cot (IC50 HTRF), the IC50 came to 38 nM. Also, the EC50 in the experiment with TNFα (setting [1]) was found to be 6090 nM.
The molecule `CCN1CCc2c([C@H](Nc3cc(Cl)c4ncc(C#N)c(Nc5ccc(F)c(Cl)c5)c4c3)c3cn(C(C)C)nn3)csc2C1` [Example 344, (S)-8-chloro-4-((3-chloro-4-fluorophenyl)amino)-6-(((6-ethyl-4,5,6,7-tetrahydrothieno[2,3-c]pyridin-3-yl)(1-isopropyl-1H-1,2,3-triazol-4-yl)methyl)amino)quinoline-3-carbonitrile] yielded an IC50 against Human Cot (IC50 HTRF) of 3 nM. The 50% effective concentration (EC50) in the experiment on TNFα (setting [1]) is 151 nM.
Take `CC(C)n1cc([C@@H](Nc2cc(Cl)c3ncc(C#N)c(Nc4ccc(F)c(Cl)c4)c3c2)c2csc3c2CCN(C)C3)nn1` [Example 345, (S)-8-chloro-4-((3-chloro-4-fluorophenyl)amino)-6-(((1-isopropyl-1H-1,2,3-triazol-4-yl)(6-methyl-4,5,6,7-tetrahydrothieno[2,3-c]pyridin-3-yl)methyl)amino)quinoline-3-carbonitrile]: inhibition on Human Cot (IC50 HTRF) was half-maximal at 3 nM (IC50). In the experiment with TNFα (setting [1]), the EC50 was determined as 73 nM.
In the case of `CC(C)n1cc([C@@H](Nc2cc(Cl)c3ncc(C#N)c(Nc4ccc(F)c(Cl)c4)c3c2)c2csc3c2CCNC3)nn1` [Example 346, (S)-8-chloro-4-((3-chloro-4-fluorophenyl)amino)-6-(((1-isopropyl-1H-1,2,3-triazol-4-yl)(4,5,6,7-tetrahydrothieno[2,3-c]pyridin-3-yl)methyl)amino)quinoline-3-carbonitrile], the half-maximal inhibitory concentration (IC50) on Human Cot (IC50 HTRF) is 3 nM. The EC50 with TNFα (setting [1]) amounted to 208 nM.
With `CC(C)(C)N1CCC(n2cc([C@@H](Nc3cc(Cl)c4ncc(C#N)c(Nc5ccc(F)c(Cl)c5)c4c3)c3ccc(F)nc3)nn2)CC1` [Example 347, (S)-6-(((1-(1-(tert-butyl)piperidin-4-yl)-1H-1,2,3-triazol-4-yl)(6-fluoropyridin-3-yl)methyl)amino)-8-chloro-4-((3-chloro-4-fluorophenyl)amino)quinoline-3-carbonitrile], on Human Cot (IC50 HTRF), inhibition was half-maximal at 4 nM (IC50). In addition, in the experiment on TNFα (setting [1]), the EC50 came out at 278 nM.
